# Results from patent US10898421B2, “Anti-dandruff composition comprising pycnidione and epolone” (Croda International PLC, priority 2015, dated 2021).
# Read-outs that look alike come from different tables or passages of the source.
# How the values were obtained:
# [1] = system: Malassezia furfur (ATCC #38593); test: Anti-fungal activity against Malassezia furfur (96 well broth assay, Alamar blue); format: cell-based; conditions: ATCC38593, 120 h; for IC50: read-out: M. furfur IC50; for MIC: visible growth
# Description: The terms Minimum Inhibitory Concentration and Half Maximal Inhibitory Concentration will be understood to have the following meanings. • Minimum Inhibitory Concentration (MIC) The minimum inhibitory concentration (MIC) will be understood to represent the lowest concentration of an anti-microbial that will inhibit the visible growth of a microorganism after overnight incubation. • Half Maximal Inhibitory Concentration (IC50) The half maximal inhibitory concentration (IC50) is a measure of the effectiveness of a substance in inhibiting a spec biological or biochemical function. This quantitative measure indicates how much of a particular drug or other substance (inhibitor) is needed to inhibit a given biological process (or component of a process, i.e. an enzyme, cell, cell receptor or microorganism) by half. IC50 represents the concentration of an active that is required for 50% inhibition in-vitro.
# Malassezia furfur (ATCC #38593) was cultured on Media C agar for 7 days at 37° C. Yeast colonies were then harvested into 0.9% saline sterile diH2O and diluted to approximately 1.5×10^6 CFU/mL using a 0.5 MacFarland standard (Fisher #R20410) to create an assay inoculum. Assay inoculum was added to sterile Media C broth to a final concentration of 4.5×10^4 CFU/mL. Assays were carried out in 96 well plates with a final well volume of 100 μL.
# Extract fractions and pure compounds were tested in triplicate against each organism. Extract fractions and pure compounds were re-suspended in sterile 20% DMSO.
# Each plate contained eight un-inoculated positive controls (media+20% DMSO), eight untreated negative controls (Media+20% DMSO+organism), and one column containing a concentration range of a ketoconazole as a control antibiotic. The assay plate was incubated at 37° C. for 5 days after which growth within the wells were visualised and photographed with a UVP Biospectrum 500 imaging system. Alamar blue was then added to each well at 10% of the culture volume (11 μL in 100 μL). Fluorescence was monitored using a BioTek Synergy HT plate reader at 530/25 excitation, 590/35 emission and 35 sensitivity at both time zero and 4 hours after Alamar blue was added. After subtracting the time zero emission 590 nm measurement from the final reading the inferred percentage of microorganism survival relative to vehicle control wells were calculated and the IC50 was determined.
# [2] = Cytotoxicity against keratinocyte cells (Alamar blue); format: cell-based, human; conditions: human
# Description: (§1) Adult human epidermal keratinocytes (Heka) isolated from skin (Invitrogen #C-005-5C) were grown and maintained in 15 mL of EPilife medium (Invitrogen #M-EPI-500) supplemented with HKGS growth supplements (Invitrogen #S-001-5) (0.2% v/v bovine pituitary extract (BPE), 5 μg/mL bovine insulin, 0.18 μg/mL hydrocortisone, 5 μg/mL bovine transferrin, 0.2 ng/mL human epidermal growth factor) and 50 μg/mL gentamicin (Sigma #G1397-10ML) in T75 cm2 cell culture flasks (VWR #CABD353136) and incubated at 37° C. in a humidified atmosphere of 5% CO2. Growth medium was refreshed every 2 days until the cells reached 50% confluency and then the medium was refreshed every 24 hours until 80% confluency was obtained.
# (§2) At 80% confluency, the cells were counted, diluted and plated into 96 well treated cell culture plates (VWR #29442-054) at a cell density of 10000 cells per well in 90 μL of respective growth medium. All media used for the assay were the same without the addition of antibiotics. The plates were incubated at 37° C. in a humidified atmosphere of 5% CO2 to allow cells to adhere to the plates for 24 hrs before treatment. DMSO was used as the vehicle at a final concentration of 1% in the wells.
# (§3) All compounds to be tested were resolublised in sterile DMSO (Sigma #D2438) and a dilution series was prepared for each cell line using the respective cell culture growth medium of which 10 μL were added to the respective assay plate well yielding eight final concentrations ranging from 128 μg/mL to 1 μg/mL per well (final well volume of 100 μL) and incubated at 37° C. in a humidified atmosphere of 5% CO2 for 24 hrs.
# (§4) All samples were tested in triplicate. Each plate contained eight un-inoculated positive controls (media+20% DMSO), eight untreated negative controls (Media+20% DMSO+cells). Alamar blue (Invitrogen #Dal1100) was added, 24 hrs after treatment, to each well at 10% of the culture volume (11 μL in 100 μL). Fluorescence was monitored using a BioTek Synergy HT plate reader at 530/25 excitation, 590/35 emission and 35 sensitivity at both time zero and 4 hrs after Alamar blue was added. After subtracting the time zero emission 590 nm measurement from the final reading the inferred percentage of microorganism survival relative to vehicle control wells were calculated and the IC50 was determined.
# [3] = system: Adult human epidermal keratinocytes (Heka); test: as above; format: cell-based; conditions: for Keratinocyte MIC: 24 hrs treatment
# Description: as §1, §2, §3, §4
# [4] = Cytotoxicity against fibroblast cells (Alamar blue); format: cell-based, human; conditions: human, 24 hrs treatment, Alamar blue, read-out: Fibroblast IC50
# Description: (§5) Human foreskin BJ fibroblast cells (ATCC CRL-2522) were grown and maintained in 15 mL of Eagle's minimal essential medium (Sigma M5650) supplemented with 10% fetal bovine serum (VWR #CA95043-976) and 100 μU penicillin and 0.1 mg/mL streptomycin (VWR #CA12001-692) in T75 cm2 cell culture flasks (VWR #CABD353136) at 37° C. in a humidified atmosphere of 5% CO2. Culture medium was refreshed every two to three days and cells were not allowed to exceed 80% confluency.
# as §2, §3, §4
# [5] = system: Human foreskin BJ fibroblast cells (ATCC CRL-2522); test: as above; format: cell-based; conditions: for Fibroblast MIC: 24 hrs treatment
# Description: as §5, §2, §3, §4
# [6] = Stability of pycnidione formulated in off-the-shelf shampoo composition; format: physicochemical; conditions: J&J baby shampoo, after a two month period
# [7] = adult human epidermal keratinocytes (Heka), 24 hrs treatment, Alamar blue, read-out: Keratinocyte IC50
# [8] = human foreskin BJ fibroblast cells (ATCC CRL-2522)
# [9] = at 8 μg/ml, where inhibition of Malassezia yeasts is retained
"IC50 ([1]; 37° C., 5 days, Alamar blue)","MIC ([1]; 37° C., 5 days)",Structure (SMILES),"CC50 at 24 h [2, 7]",Keratinocyte MIC [3],"CC50 at 24 h [4, 8]",Fibroblast MIC [5],IC50 [1],"CC50 at 24 h ([2]; text of b135, read-out: IC50, toxicity to keratinocyte cells)","cell line cytotoxicity at lower concentrations (keratinocyte) [3, 9]",CC50 at 24 h [4],"cell line cytotoxicity at lower concentrations (fibroblast) [5, 9]",stability of shampoo composition [6]
48 µg/mL,64 µg/mL,"Cc1cc(=O)c(O)cc2c1C[C@H]1CC(C)(C)/C=C/C[C@@]3(C)Oc4cc(O)cc(C)c4C[C@@H]3C[C@H](O)[C@]1(C)O2 [Epolone A, epolone A]",13 µg/mL,32 µg/mL,14 µg/mL,32 µg/mL,–,–,–,–,–,–
–,–,"[O-]n1ccccc1=S.[O-]n1ccccc1=S.[Zn+2] [zinc pyrithione, zinc salt of 1-hydroxy-2-pyridinethione, reference compound]",–,1 µg/mL,–,–,–,–,–,–,–,–
24 µg/mL,32 µg/mL,"C/C1=C\CC(C)(C)/C=C/C[C@@]2(C)Oc3cc(O)c(=O)cc(C)c3C[C@@H]2C[C@H]1O [Epolone B, epolone B]",50 µg/mL,>128 µg/mL,> 128 µg/mL,>128 µg/mL,–,–,–,–,–,–

Structure (SMILES),"IC50 ([1]; 37° C., 5 days, Alamar blue)","MIC ([1]; 37° C., 5 days)","CC50 at 24 h [2, 7]",Keratinocyte MIC [3],"CC50 at 24 h [4, 8]",Fibroblast MIC [5],IC50 [1],"CC50 at 24 h ([2]; text of b135, read-out: IC50, toxicity to keratinocyte cells)","cell line cytotoxicity at lower concentrations (keratinocyte) [3, 9]",CC50 at 24 h [4],"cell line cytotoxicity at lower concentrations (fibroblast) [5, 9]",stability of shampoo composition [6]
"Cc1cc(=O)c(O)cc2c1C[C@H]1CC(C)(C)/C=C/C[C@@]3(C)Oc4cc(O)c(=O)cc(C)c4C[C@@H]3C[C@H](O)[C@]1(C)O2 [Pycnidione, pycnidione]",–,8 µg/mL,–,64 µg/mL,–,64 µg/mL,6 µg/mL,15 µg/mL,no cell line cytotoxicity was observed,11 µg/mL,no cell line cytotoxicity was observed,remained stable
